Measured values reported in patent US20260364213A1, “RADIOLABELED COMPOUNDS OF TRIMETHOPRIM AND USES THEREOF” (THE TRUSTEES OF THE UNIVERSITY OF PENNSYLVANIA, priority 2023, published 2026).
Read-outs that look alike come from different tables or passages of the source.

Key:
eDHFR [1] = target: T1, eDHFR (Escherichia coli, UniProt P0ABQ4); format: cell-based; set-up: in CAR T cells fused to C-terminus of CD3zeta of FAP-CAR; details: for uptake in eDHFR+ CAR T cells compared to NTD cells: 0.074 MBq, 60 min at 37 °C, FAP-CAR-eDHFR (DF-BFP), day 8 of T cell expansion, 60 min
T1 sequence (P0ABQ4 1-159): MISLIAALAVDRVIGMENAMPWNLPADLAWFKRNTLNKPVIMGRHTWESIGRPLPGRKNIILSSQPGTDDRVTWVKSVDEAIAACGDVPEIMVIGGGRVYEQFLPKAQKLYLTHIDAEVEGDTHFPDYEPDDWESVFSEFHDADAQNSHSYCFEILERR
Protocol: Primary human T cells were sourced from healthy volunteers through the Human Immunology Core at the University of Pennsylvania. All specimens were obtained following institutional review board-approved protocols and informed consent from the volunteers. Bulk T cells were activated and expanded following established methods and subsequently, either pTRPE-FAP CAR-eDHFR DF or pTRPE-FAP CAR-eDHFR DF-T2A-BFP (7) lentivirus was introduced to the activated T cells 16 hours post-activation at a multiplicity of infection (MOI) of 5. The T cells were then expanded for a period of 10 days. Transduced CAR T cells were incubated with Alexa Fluor 647 AffiniPure F(ab′2) fragment goat anti-mouse immunoglobulin G (Jackson ImmunoResearch Laboratories) for half an hour at room temperature. Following incubation, stained cells were washed 3*100 μL with FACS buffer (2% bovine serum albumin in PBS, Invitrogen). The washed cells were analyzed using a flow cytometer (LSR II, BD Biosciences) to detect CAR and/or BFP expression. FlowJo software was used to analyze the flow data.
Next, the uptake radio-iodinated probe 5b was evaluated in primary human CAR-T cells. CAR-T cells were engineered to express eDHFR which is fused directly to the C-terminus of the signaling CD3zeta domain of the fibroblast activation protein (FAP) CAR. […] After incubation, the cells were centrifuged at 1200 rpm and were washed thrice with cold PBS (Corning). Subsequently, the cell pellet was resuspended in 1% DMSO/PBS and divided into 3 technical replicates of 100 μL each. The uptake of radiotracer was quantified using a gamma counter (PerkinElmer). The final uptake was expressed as a ratio of % ID normalized per […] cells (% ID/million cells). An about 15 fold more uptake in eDHFR+ cells was observed as compared to NTD cells. See, FIGS. 6A and 6B. The specificity is further assessed by comparing with FAP_CAR_eDHFR(df) which has low eDHFR expression. Less uptake of radiotracer 5b was observed as compared to high expressing eDHFR FAP_CARs.
[^131I]I-TMP in CAR T cells. […] In this case, two different fibroblast activation protein (FAP) CAR T cell constructs that express eDHFR fused directly to the C-terminus of the signaling CD3zeta domain of the CAR were used (7) (FIGS. 13F and 13G). […] There was ~15-fold more uptake in FAP-CAR-eDHFR-DF-BFP in comparison to NTD cells at day 8 of T cell expansion (FIG. 13A).

HCT116 eDHFR-Luc cells = assay: Kill assay (MTT) in HCT116 eDHFR-Luc cells; format: cell-based, human; details: 3.7 MBq; for cell growth at day 10: in comparison to blocked conditions
Protocol: (§1) Following the same uptake protocol till washing after the third wash the cells were counted using cell counter and they were diluted to generate even number of cells/mL. […] We've applied the same blocked conditions used in the uptake assay. […] Then cells will be re-distributed into 96 well plates (2,000 cells/well) with fresh media to monitor cell proliferation by MTT assay on days 1, 3, 7 and 10. A total of 9 wells (3×3) were measured on the plate per sample per time point. To complete the assay cell media was removed and replaced with 50 μL of serum free media and 50 μL of MTT reagent. The plates were covered with tin foil and incubated at 37 °C for 3 hours. The plates were shaken at 200 rpm at 37 °C for 15 min. Using the microplate plate reader, sample absorbance was measured at 590 nm for 600 ms. Controls included [^131I]NaI treated cells and blocking with 10 μM parent TMP (unlabeled). An analogous procedure was used for the OVCAR8-eDHFR-Luc kill assay with different doses (1.85-37 MBq) and treatment times.
Despite lower uptake in HCT116 cells, cell viability was measured on days 1, 3, 7, and 10 using the MTT assay and compared with blocked, no drug and [^131I]I—Na treated cells. […] See, FIG. 3A. […] See, FIG. 3B.

OVCAR8-eDHFR-Luc cells = assay: Kill assay (MTT) in OVCAR8-eDHFR-Luc cells; format: cell-based, human
Protocol: as §1
To investigate the therapeutic potential of m[^131I]mI-TMP 5b in tumor cell lines, OVCAR8 eDHFR+ cells were exposed to varying doses (ranging from 1.85-37 MBq) of the radiotracer of 5b at different incubation times. Different conditions were employed to assess the selective therapeutic effect of the radio tracer on eDHFR+ cells. To determine the specific killing of eDHFR+ tumor cells, blocked conditions were analyzed. The cell viability of compound 5b-treated cells was also compared with the cells exposed to [^131I]I—Na. Additionally, untreated cells were used as controls. The MTT assay was used to measure the cell viability of the cells under the aforementioned conditions on days 1, 3, 7, and 12.
OVCAR8-eDHFR-Luc+ cells were treated with 1.85 and 18.5 MBq of m[^131I]mI-TMP 5b and [^131I]I—Na, incubated for 1 hour. […] The cell viability of the compound 5b-treated cells was similar to cells under blocked, [^131I]NaI, and no drug conditions. See, FIG. 2A. […] See, FIG. 2B. Based on the results obtained, a continued dose escalation was considered to better understand the therapeutic window. Finally, OVCAR_eDHFR+ cells were tested with 37 MBq dose of m[^131I]mI-TMP.

eDHFR [2] = target: T1, eDHFR
Serum stability in FBS = format: in vitro ADME; details: FBS at 37 °C, 72 hours, radio-TLC
Protocol: In vitro serum stability of was performed by adding the [^131I]mI-TMP (50 μL, 1.85 MBq) to fetal bovine serum (500 μL). The mixture was then incubated in a ThermoMixer (800 rpm) at 37 °C, and deiodination was analyzed by radio-TLC (10% NH40Ac:MeOH=3:7) at 0, 24, and 72 h. In this condition, free I-131 moved to solvent front whereas intact [^131I]I-TMP remained at the origin.

eDHFR [3] = target: T1, eDHFR; details: eDHFR+ cells pre-incubated with 10 μM unlabeled TMP

SMILES | uptake in eDHFR+ CAR T cells compared to NTD cells (eDHFR [1]) | uptake in eDHFR+ CAR T cells compared to NTD cells (eDHFR [1]; listed as [^131I]I-TMP) | uptake in CAR T cells, earlier day of expansion (eDHFR [1]; earlier day of expansion (day 5)) | cell viability at day 7 (HCT116 eDHFR-Luc cells; 4 hours incubation) | cell growth at day 10 (HCT116 eDHFR-Luc cells; 4 hours incubation) | cytotoxic effect (OVCAR8-eDHFR-Luc cells; 37 MBq, also with 20 minutes incubation, blocked cells behaved the same) | tracer uptake in eDHFR+ cells compared to WT cells (eDHFR [2]; OVCAR8-eDHFR-Luc vs OVCAR8 WT, 0.037 MBq, 1 hour) | retention in washout study (eDHFR [1]; FAP_CAR_eDHFR cells, after 5 h) | uptake in FAP_CAR_eDHFR(df) with low eDHFR expression (eDHFR [1]; compared to high expressing eDHFR FAP_CARs) | serum stability, deiodination (Serum stability in FBS) | cytotoxic effect (HCT116 eDHFR-Luc cells; 2 hours incubation) | cytotoxic effect (HCT116 eDHFR-Luc cells; 4 hours incubation, compared to blocked cells) | uptake under blocked conditions (eDHFR [3]) | cytotoxic effect / cell viability (OVCAR8-eDHFR-Luc cells; 1.85 MBq, 1 hour) | cell viability under blocked conditions (OVCAR8-eDHFR-Luc cells; 18.5 MBq, 1 h, cells treated with the blocking agent (10 μM TMP)) | cytotoxic effect / cell viability (OVCAR8-eDHFR-Luc cells; 18.5 MBq, 1 h, viability to day 12) | uptake under blocked conditions (eDHFR [2]; OVCAR8 eDHFR cells preincubated with excess of TMP)
COc1cc(Cc2cnc(N)nc2N)cc([131I])c1OC [[^131I]mI-TMP, 5-(3-iodo-4,5-dimethoxybenzyl)pyrimidine-2,4-diamine] | about 15 fold | ~ 15 fold | ~ 3 fold | no cell regrowth at day 7 | mild regrowth was observed at day 10 and beyond | non-specific cell killing | ~ 25 fold |  |  |  |  |  |  |  |  |  | 
COc1cc(Cc2cnc(N)nc2N)cc(I)c1OC [[^131I]mI-TMP, 5-(3-iodo-4,5-dimethoxybenzyl)pyrimidine-2,4-diamine] |  |  |  | did not show any viability on day 7 | mild growth at day 10 |  |  | strong internalization of compound 5b even after 5 h | Less uptake | without any detectable deiodination | did not exhibit any cytotoxic effect | demonstrated a cytotoxic effect | reduced uptake | did not exhibit any cytotoxic effects/decreased viability | comparable viability to those under no treatment or [^131I]I—Na conditions | strong cytotoxic effects, and thus no cell regrowth/significantly lower viability was observed at day 7 and even at day 12 | reduced uptake
